Laboratory results from patent US20260042802A1, “POLYPEPTIDE AND USE THEREOF” (priority 2024, published 2026).
Where a SMILES comes first, the peptide text is derived from it. Bridges are numbered along the chain shown (N, C = ends).

Tests used:
[1] = tested on: sciatic nerve in rats; experiment: Compound action potential (CAP) of the sciatic nerve in rats; assay type: in vivo, Sprague-Dawley (SD) rats; conditions: 20 μL of 30, 100, 300 nM on sciatic nerve; before and after needling; vs negative control group (p<0.05)
Procedure: Four SPF-grade healthy Sprague-Dawley (SD) rats are randomly selected, half males and half females, weighing 180˜200 g, 6˜8 weeks old. The rats are first acclimatized and fed for 1 week, fasted for 12 h before the experiment, with free access to water.
Rats weighing between 180 g and 200 g are taken and anesthetized with 7% chloral hydrate solution at a concentration of 0.4 mL/100 g. […] Then, the fully anesthetized rats are placed on the operating table so that their backs are facing upwards and their paws are held in place with a string. The skin and connective tissue of the leg are cut sequentially, and the muscles between the biceps femoris and the gluteus superficialis are bluntly-dissected. […]
Observations are performed on rats in the polypeptide PPN-01 group and in the negative control drug lidocaine group, and the effect of each concentration of polypeptide PPN-01 on the peak amplitude of the positive and negative phases of the CAP in the sciatic nerve of rats is assessed by the inhibition rate. […]
Four to six CAPs within 2 min after each recording time period are selected for analysis, and the mean peak amplitude is calculated as the representative CAP peak amplitude and time course for each group, with the peak amplitude of the CAP being the difference between the baseline and the peak CAP.

[2] = target: T1, Nav1.6 (Homo sapiens, UniProt Q9UQD0); experiment: Whole-cell patch clamp on Nav1.6 overexpressing HEK293 cells; assay type: cell-based; conditions: 300 nM; −90 mV to +40 mV, 30 ms; n=5
T1 construct: expressed in transfected cells; host or cells: HEK293
T1 sequence (Q9UQD0 whole entry): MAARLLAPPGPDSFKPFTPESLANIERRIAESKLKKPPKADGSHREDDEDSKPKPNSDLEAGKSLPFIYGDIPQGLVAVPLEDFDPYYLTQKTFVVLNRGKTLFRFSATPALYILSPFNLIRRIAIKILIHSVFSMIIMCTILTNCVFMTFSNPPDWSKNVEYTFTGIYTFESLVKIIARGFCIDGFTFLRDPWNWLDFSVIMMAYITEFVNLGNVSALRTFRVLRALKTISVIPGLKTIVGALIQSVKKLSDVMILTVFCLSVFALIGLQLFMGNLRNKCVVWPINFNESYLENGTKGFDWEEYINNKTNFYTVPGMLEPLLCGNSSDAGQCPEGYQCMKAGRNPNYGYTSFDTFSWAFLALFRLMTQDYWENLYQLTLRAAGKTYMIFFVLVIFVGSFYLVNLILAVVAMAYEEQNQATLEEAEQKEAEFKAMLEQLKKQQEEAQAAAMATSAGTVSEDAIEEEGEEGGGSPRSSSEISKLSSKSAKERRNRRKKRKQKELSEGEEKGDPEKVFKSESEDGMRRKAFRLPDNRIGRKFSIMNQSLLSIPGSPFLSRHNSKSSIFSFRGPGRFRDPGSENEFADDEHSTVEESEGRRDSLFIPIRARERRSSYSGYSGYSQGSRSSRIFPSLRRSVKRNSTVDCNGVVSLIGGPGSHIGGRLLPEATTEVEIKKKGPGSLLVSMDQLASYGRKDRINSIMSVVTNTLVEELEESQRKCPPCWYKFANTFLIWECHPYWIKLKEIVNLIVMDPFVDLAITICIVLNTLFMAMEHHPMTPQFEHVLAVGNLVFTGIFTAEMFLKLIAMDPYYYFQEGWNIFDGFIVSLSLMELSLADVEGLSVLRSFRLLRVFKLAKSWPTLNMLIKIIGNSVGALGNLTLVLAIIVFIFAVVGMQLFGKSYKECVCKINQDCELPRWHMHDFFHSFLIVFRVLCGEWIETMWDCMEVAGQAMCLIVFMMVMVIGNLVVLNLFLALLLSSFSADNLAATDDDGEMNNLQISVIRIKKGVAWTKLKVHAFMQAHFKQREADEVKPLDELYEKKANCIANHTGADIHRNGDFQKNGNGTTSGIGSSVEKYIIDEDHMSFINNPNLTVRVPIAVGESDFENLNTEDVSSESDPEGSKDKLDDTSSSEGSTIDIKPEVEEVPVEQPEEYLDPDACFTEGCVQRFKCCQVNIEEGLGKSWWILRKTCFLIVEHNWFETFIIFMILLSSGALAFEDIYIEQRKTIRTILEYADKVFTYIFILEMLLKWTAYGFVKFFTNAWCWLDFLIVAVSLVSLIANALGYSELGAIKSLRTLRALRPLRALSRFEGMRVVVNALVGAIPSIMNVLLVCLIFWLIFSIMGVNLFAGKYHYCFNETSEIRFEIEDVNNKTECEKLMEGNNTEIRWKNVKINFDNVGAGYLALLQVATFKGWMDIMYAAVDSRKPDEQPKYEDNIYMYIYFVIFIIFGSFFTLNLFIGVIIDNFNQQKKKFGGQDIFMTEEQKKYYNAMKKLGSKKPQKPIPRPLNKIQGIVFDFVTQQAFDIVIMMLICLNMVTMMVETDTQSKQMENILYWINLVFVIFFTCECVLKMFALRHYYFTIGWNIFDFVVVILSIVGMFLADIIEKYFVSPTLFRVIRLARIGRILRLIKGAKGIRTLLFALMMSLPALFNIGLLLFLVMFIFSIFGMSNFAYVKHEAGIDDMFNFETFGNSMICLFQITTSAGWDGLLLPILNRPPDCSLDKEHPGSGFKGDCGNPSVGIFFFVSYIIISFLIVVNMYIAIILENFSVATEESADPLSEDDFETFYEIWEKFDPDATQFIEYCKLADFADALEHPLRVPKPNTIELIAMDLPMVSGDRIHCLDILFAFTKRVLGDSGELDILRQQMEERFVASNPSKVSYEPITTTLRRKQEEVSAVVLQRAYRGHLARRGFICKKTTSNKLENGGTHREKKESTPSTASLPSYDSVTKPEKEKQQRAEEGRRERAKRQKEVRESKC
Procedure: (§1) The effect of the polypeptide PPN-01 provided in Example 1 on voltage gated sodium channels is studied using the glass microelectrodes prepared as described above in Example 2 and employing the whole-cell membrane clamp techniques. The specific operations are as follows:
(§2) 1. Firstly, internal electrode solution is placed on ice to defrost; after defrosting, an appropriate amount of internal electrode solution is drawn up with a 1 ml syringe; and after a homemade filler is applied to the tip end of the syringe, the air in the tube is emptied to fill the entire filler with internal electrode solution. Secondly, internal electrode solution in the filler is poured into the glass microelectrode from a rear part thereof by using the rear part perfusion method; internal electrode solution is slowly injected into the glass microelectrode; and the amount of perfusion is generally ⅓ to ½ of a length of the glass microelectrode (it is necessary to ensure that the silver wire of the electrode may fully contact internal electrode solution, but also to avoid electrode contamination resulting from too much internal electrode solution). […]

[3] = target: T2, Nav1.5 (Homo sapiens, UniProt Q14524); experiment: Whole-cell patch clamp on Nav1.5 overexpressing HEK293 cells; assay type: cell-based; conditions: 300 nM; −90 mV to +40 mV, 30 ms; n=5
T2 construct: expressed in transfected cells; host or cells: HEK293
T2 sequence (Q14524 whole entry): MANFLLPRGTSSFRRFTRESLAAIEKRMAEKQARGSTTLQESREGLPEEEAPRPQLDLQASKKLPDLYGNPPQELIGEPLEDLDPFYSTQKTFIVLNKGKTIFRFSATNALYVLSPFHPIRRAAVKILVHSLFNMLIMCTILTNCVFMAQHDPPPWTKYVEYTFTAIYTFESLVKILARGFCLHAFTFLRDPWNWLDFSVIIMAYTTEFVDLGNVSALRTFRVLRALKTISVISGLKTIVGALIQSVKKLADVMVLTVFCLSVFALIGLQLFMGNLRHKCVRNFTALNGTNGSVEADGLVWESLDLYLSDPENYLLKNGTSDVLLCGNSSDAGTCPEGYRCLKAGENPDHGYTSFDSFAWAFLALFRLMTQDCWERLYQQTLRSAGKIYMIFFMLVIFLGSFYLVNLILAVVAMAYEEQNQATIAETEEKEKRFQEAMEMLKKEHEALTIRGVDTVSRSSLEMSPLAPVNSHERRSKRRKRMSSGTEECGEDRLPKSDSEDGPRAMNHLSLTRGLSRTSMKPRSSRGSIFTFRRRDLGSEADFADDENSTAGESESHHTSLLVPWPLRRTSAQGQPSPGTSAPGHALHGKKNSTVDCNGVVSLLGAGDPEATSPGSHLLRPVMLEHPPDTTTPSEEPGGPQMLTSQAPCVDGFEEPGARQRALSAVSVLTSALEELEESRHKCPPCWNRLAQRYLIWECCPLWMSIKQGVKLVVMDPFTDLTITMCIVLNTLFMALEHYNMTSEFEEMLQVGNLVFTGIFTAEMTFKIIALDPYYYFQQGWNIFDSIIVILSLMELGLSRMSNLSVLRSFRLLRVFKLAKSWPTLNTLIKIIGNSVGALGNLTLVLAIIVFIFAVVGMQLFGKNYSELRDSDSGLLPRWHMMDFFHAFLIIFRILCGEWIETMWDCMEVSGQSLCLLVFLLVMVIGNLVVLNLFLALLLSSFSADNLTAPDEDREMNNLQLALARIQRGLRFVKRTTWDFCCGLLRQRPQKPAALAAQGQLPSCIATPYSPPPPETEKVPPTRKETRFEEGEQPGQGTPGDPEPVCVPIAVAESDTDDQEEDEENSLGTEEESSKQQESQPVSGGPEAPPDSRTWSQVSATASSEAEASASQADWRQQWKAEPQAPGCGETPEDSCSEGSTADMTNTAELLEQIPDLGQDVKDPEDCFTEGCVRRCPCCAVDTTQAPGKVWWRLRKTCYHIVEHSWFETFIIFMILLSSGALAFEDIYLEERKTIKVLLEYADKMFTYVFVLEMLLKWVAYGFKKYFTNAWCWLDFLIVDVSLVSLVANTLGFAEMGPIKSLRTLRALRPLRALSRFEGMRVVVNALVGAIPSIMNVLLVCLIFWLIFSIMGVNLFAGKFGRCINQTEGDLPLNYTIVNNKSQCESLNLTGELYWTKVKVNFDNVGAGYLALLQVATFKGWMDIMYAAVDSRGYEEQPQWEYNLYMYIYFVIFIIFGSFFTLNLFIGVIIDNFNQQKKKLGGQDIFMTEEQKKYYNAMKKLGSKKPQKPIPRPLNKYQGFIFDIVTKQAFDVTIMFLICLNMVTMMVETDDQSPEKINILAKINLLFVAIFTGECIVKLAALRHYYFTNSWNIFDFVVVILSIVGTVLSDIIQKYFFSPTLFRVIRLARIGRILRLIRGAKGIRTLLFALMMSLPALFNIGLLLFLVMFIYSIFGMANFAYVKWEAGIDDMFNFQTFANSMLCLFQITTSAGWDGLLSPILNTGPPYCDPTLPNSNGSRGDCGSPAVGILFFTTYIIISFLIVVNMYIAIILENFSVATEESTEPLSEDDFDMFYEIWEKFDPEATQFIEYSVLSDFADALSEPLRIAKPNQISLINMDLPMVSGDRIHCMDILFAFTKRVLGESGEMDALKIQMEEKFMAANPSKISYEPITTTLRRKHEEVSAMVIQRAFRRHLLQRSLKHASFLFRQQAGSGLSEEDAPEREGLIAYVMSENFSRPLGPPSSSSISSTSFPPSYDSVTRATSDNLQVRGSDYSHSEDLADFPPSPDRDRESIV
Procedure: as §1, §2

[4] = target: T3, Nav1.4 (Homo sapiens, UniProt P35499); experiment: Whole-cell patch clamp on Nav1.4 overexpressing HEK293 cells; assay type: cell-based; conditions: 300 nM; −90 mV to +40 mV, 30 ms; n=5
T3 construct: expressed in transfected cells; host or cells: HEK293
Procedure: as §1, §2

CSCC[C@@H]1NC(=O)CNC(=O)[C@H](CCC(=O)O)NC(=O)[C@@H]2CSSC[C@H](NC(=O)[C@H](Cc3ccc(O)cc3)NC(C)=O)C(=O)N[C@@H](CCC(N)=O)C(=O)N[C@@H](CCCCN)C(=O)N[C@@H](Cc3ccccc3)C(=O)N[C@@H](CC(C)C)C(=O)N[C@@H](C)C(=O)N3CCC[C@H]3C(=O)N[C@H]3CSSC[C@H](NC(=O)[C@H](CCC(=O)O)NC1=O)C(=O)N[C@@H](CCCCN)C(=O)N[C@@H](CC(C)C)C(=O)N[C@@H](Cc1c[nH]c4ccccc14)C(=O)N[C@H](C(=O)N[C@@H](CCCCN)C(=O)N[C@@H](CCCCN)C(=O)N[C@@H](CCCCN)C(=O)N[C@@H](CC(C)C)C(=O)N[C@@H](Cc1c[nH]c4ccccc14)C(N)=O)CSSC[C@H](NC(=O)[C@H](CCCCN)NC(=O)[C@H](CCCNC(=N)N)NC(=O)[C@H](CCC(=O)O)NC(=O)[C@H](CO)NC(=O)[C@H](CC(=O)O)NC3=O)C(=O)N2 [PPN-01] (Ac-YCQKFLAPCDSERKCCEGMECKLWCKKKLW-NH2; disulfide 2-16, 9-21, 15-25)
peak amplitude of CAP (positive and negative phases) [1]: significantly decreased | inhibition effect on Nav1.6 overexpressing HEK293 cells [2]: no significant inhibition effect | inhibition effect on Nav1.5 overexpressing HEK293 cells [3]: no significant inhibition effect | inhibition effect on Nav1.4 overexpressing HEK293 cells [4]: no significant inhibition effect
